Experimental data published in patent US11286268B1, “EIF4E-inhibiting compounds and methods” (EFFECTOR THERAPEUTICS, INC., priority 2019, dated 2022).
Read-outs that look alike come from different tables or passages of the source.

Molecular target: recombinant eIF4E (Homo sapiens (Human), UniProt P06730)
Assay: Fluorescence polarization competition assay for eIF4E binding potency
Protocol: Compounds were screened for eIF4E binding potency using a fluorescence polarization competition assay. All binding reactions were performed in fluorescence polarization buffer (FPB) containing 20 mM Tris pH 7.5, 100 mM NaCl, 1 mM DTT, and 0.02% Tween-20. Final binding reactions contained 75 nM recombinant eIF4E (Beryllium, custom order), 20 nM EDA-m^7GDP-ATTO-550 (Jena Bioscience, NU-827-550) and varying concentrations of the inhibitory compound of interest. Final DMSO concentration in each reaction was 1%.
eIF4E protein was pre-incubated with EDA-m^7GDP-ATTO-550 in FPB at 2× concentrations for 5 minutes prior to the addition of compounds. Compounds (100×) were prepared using 3-fold serial dilutions in 100% DMSO, and subsequently diluted 1:50 in FPB to produce 2× stocks. 50 μl of 2× eIF4E/EDA-m^7GDP-ATTO-550 were transferred to the wells of a 96-well half-area black flat bottom polystyrene plate. 50 μl of 2× test compound were added, and binding reactions were allowed to equilibrate for 30 minutes at room temperature while protected from light. The fluorescent polarization signal was detected using a Victor 2 multi-label counter (Perkin Elmer) and the concentration necessary to achieve inhibition of eIF4E/EDA-m^7GDP-ATTO-550 binding by 50% (IC50) was calculated using data from an 8-point compound dilution series.
In Table 4A, IC50 values of less than 0.05 μM are labelled as “+++”, from 1 to 0.05 μM are labelled as “++”, and greater than 1 μM are labelled as “+”. ND=not determined.

[1] = fluorescence polarization competition, 75 nM recombinant eIF4E, 20 nM EDA-m7GDP-ATTO-550, IC50 class, read-out: elF4E FP
[2] = inhibition of eIF4E/EDA-m7GDP-ATTO-550 binding by 50%, Table 4B calculated values, read-out: IC50

recombinant eIF4E, sequence (P06730 whole entry): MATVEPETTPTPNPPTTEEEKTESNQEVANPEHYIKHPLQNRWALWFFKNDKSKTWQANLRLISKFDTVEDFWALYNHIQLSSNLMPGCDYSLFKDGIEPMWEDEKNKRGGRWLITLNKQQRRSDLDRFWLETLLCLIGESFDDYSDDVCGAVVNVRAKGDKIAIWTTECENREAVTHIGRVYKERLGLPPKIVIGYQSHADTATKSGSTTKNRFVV

SMILES | IC50 [1] [nM] | IC50 [2] [nM]
N#Cc1cc2c(=O)n(CCOc3ccc(Cl)cc3-c3ncc(C(=O)O)s3)cnc2cn1 [compound 52] | > 1000 | > 3000
N#Cc1cc2c(=O)n(CCOc3ccc(Cl)cc3-c3cnc(C(=O)O)s3)cnc2cn1 [compound 54] | > 1000 | 2280
Cn1ccc2c(=O)n(CCOc3ccc(Cl)cc3-c3cccc(C(=O)O)c3)cnc21 [compound 68] | > 1000 | 64300
Cn1ccc2ncn(CCOc3ccc(Cl)cc3-c3cccc(C(=O)O)c3)c(=O)c21 [compound 69] | > 1000 | 26800
Cc1nc2ccccc2c(=O)n1CCOc1ccc(Cl)cc1-c1cccc(C(=O)O)c1 [compound 72] | > 1000 | 3100
N#Cc1cccc2c(=O)n(CCOc3ccc(Cl)cc3-c3cccc(C(=O)O)c3)cnc12 [compound 75] | > 1000 | 1400
O=C(O)c1cccc(-c2cc(Cl)ccc2OCCn2cnc3c(F)cccc3c2=O)c1 [compound 76] | > 1000 | 2300
O=C(O)c1cccc(-c2cc(Cl)ccc2OCCn2cnc3cc(F)c(F)cc3c2=O)c1 [compound 77] | > 1000 | 1440
O=C(O)c1cccc(-c2cc(Cl)ccc2OCCn2cnc3cc(F)cc(F)c3c2=O)c1 [compound 78] | > 1000 | 1630
N#Cc1cc2c(=O)n(CCOc3ccc(Cl)cc3-c3ccc(C(=O)O)o3)cnc2cn1 [compound 79] | > 1000 | 1650
N#Cc1cc2c(=O)n(CCOc3ccc(Cl)cc3-c3nc(C(=O)O)cs3)cnc2cn1 [compound 81] | > 1000 | 4220
Cn1cc(-c2cc(Cl)ccc2OCCn2cnc3cnc(C#N)cc3c2=O)cc1C(=O)O [compound 82] | > 1000 | 1660
N#Cc1cc2c(=O)n(CCOc3ccc(Cl)cc3-c3cc(C(=O)O)cs3)cnc2cn1 [compound 83] | > 1000 | 2560
Cn1nc(C(=O)O)cc1-c1cc(Cl)ccc1OCCn1cnc2cnc(C#N)cc2c1=O [compound 84] | > 1000 | 1250
N#Cc1cc2c(=O)n(CCOc3ccc(Cl)cc3-c3cncc(C(=O)O)n3)cnc2cn1 [compound 85] | > 1000 | 1850
N#Cc1cc2c(=O)n(CCOc3ccc(Cl)cc3-c3cc(C(=O)O)c(F)cc3F)cnc2cn1 [compound 86] | > 1000 | 49700
COc1cc(-c2cc(Cl)ccc2OCCn2cnc3cnc(C#N)cc3c2=O)cc(C(=O)O)n1 [compound 87] | > 1000 | 1160
CNc1ncc(-c2cc(Cl)ccc2OCCn2cnc3cnc(C#N)cc3c2=O)nc1C(=O)O [compound 88] | > 1000 | 1680
N#Cc1cc2c(=O)n(CCOc3ccc(Cl)cc3-c3cc(C(=O)O)cc(F)c3F)cnc2cn1 [compound 89] | > 1000 | > 3000

SMILES | IC50 [1] [nM] | IC50 [2] [nM]
COc1ncc(-c2cc(Cl)ccc2OCCn2cnc3cnc(C#N)cc3c2=O)nc1C(=O)O [compound 90] | > 1000 | 1230
N#Cc1cc2c(=O)n(CCOc3ccc(Cl)cc3-c3cc(C(=O)O)ccc3C3CC3)cnc2cn1 [compound 92] | > 1000 | > 3000
N#Cc1cc(C(=O)O)cc(-c2cc(Cl)ccc2OCCn2cnc3cnc(C#N)cc3c2=O)c1 [compound 93] | > 1000 | 1400
N#Cc1cc2c(=O)n(CCOc3ccc(Cl)cc3-c3ccc(C#N)c(C(=O)O)c3)cnc2cn1 [compound 94] | > 1000 | 1420
CSc1cc(C(=O)O)cc(-c2cc(Cl)ccc2OCCn2cnc3cnc(C#N)cc3c2=O)c1 [compound 95] | > 1000 | 2860
N#Cc1cc2c(=O)n(CCOc3ccc(Cl)cc3-c3cc4c(c(C(=O)O)c3)OCO4)cnc2cn1 [compound 96] | > 1000 | 2100
COc1cc(F)c(C(=O)O)cc1-c1cc(Cl)ccc1OCCn1cnc2cnc(C#N)cc2c1=O [compound 97] | > 1000 | > 3000
N#Cc1cc2c(=O)n(CCOc3ccc(Cl)cc3-c3cc(C(=O)O)c4ccccc4n3)cnc2cn1 [compound 99] | > 1000 | 3420
N#Cc1cc2c(=O)n(CCOc3ccc(Cl)cc3-c3cc(C(=O)O)c4ncccc4c3)cnc2cn1 [compound 100] | > 1000 | 3480
N#Cc1cc2c(=O)n(CCOc3ccc(Cl)cc3-c3cc(C(=O)O)c(F)c(F)c3F)cnc2cn1 [compound 101] | > 1000 | 43800
Cn1cc2c(C(=O)O)cc(-c3cc(Cl)ccc3OCCn3cnc4cnc(C#N)cc4c3=O)cc2n1 [compound 102] | > 1000 | 4820
CC(=O)Nc1ccc(-c2cc(Cl)ccc2OCCn2cnc3cnc(C#N)cc3c2=O)cc1C(=O)O [compound 103] | 50 to 1000 | 747
N#Cc1cc2c(=O)n(CCOc3ccc(Cl)cc3-c3cc4c(c(C(=O)O)c3)OCC4)cnc2cn1 [compound 104] | 50 to 1000 | 586
CC(C)(C)c1cc(C(=O)O)cc(-c2cc(Cl)ccc2OCCn2cnc3cnc(C#N)cc3c2=O)c1 [compound 105] | > 1000 | > 3000
N#Cc1cc2c(=O)n(CCOc3ccc(Cl)cc3-c3cc(CCO)cc(C(=O)O)c3)cnc2cn1 [compound 106] | > 1000 | 1380
COc1cc(-c2cc(Cl)ccc2OCCn2cnc3cnc(C#N)cc3c2=O)cc(C(=O)O)c1OC [compound 107] | > 1000 | 3820
COc1c(Cl)cc(-c2cc(Cl)ccc2OCCn2cnc3cnc(C#N)cc3c2=O)cc1C(=O)O [compound 108] | > 1000 | 11200
N#Cc1cc2c(=O)n(CCOc3ccc(Cl)cc3-c3cnc(C(F)F)c(C(=O)O)c3)cnc2cn1 [compound 109] | > 1000 | 19200

Next, values leading:

IC50 [1] [nM] | IC50 [2] [nM] | SMILES
< 50 | 21.3 | Cc1nc2cc(C(F)(F)F)cc(C#N)c2c(=O)n1CCOc1ccc(Cl)cc1-c1cccc(C(=O)O)c1 [compound 51]
50 to 1000 | 931 | N#Cc1cc2c(=O)n(CCOc3ccc(Cl)cc3-c3ccc(C(=O)O)s3)cnc2cn1 [compound 53]
< 50 | 21.6 | C#Cc1c(C(=O)O)cccc1-c1cc(Cl)ccc1OCCn1c(C)nc2ccc(C(F)F)c(C#N)c2c1=O [compound 55]
< 50 | 12.8 | C#Cc1c(-c2cc(Cl)ccc2OCCn2c(C)nc3ccc(C(F)F)c(C#N)c3c2=O)ccnc1C(=O)O [compound 57]
50 to 1000 | 50.2 | C#Cc1c(-c2cc(Cl)ccc2OCCn2c(C)nc3cc(C(F)(F)F)cc(C#N)c3c2=O)ccnc1C(=O)O [compound 58]
< 50 | 21.5 | Cc1nc2cc(C(F)(F)F)c(C(F)F)c(C#N)c2c(=O)n1CCOc1ccc(Cl)cc1-c1cccc(C(=O)O)c1 [compound 59]
< 50 | – | Cc1nc2cc(C(F)(F)F)cc(C#N)c2c(=O)n1CCOc1ccc(Cl)cc1-c1ccnc(C(=O)O)c1 [compound 60]
< 50 | 26.5 | Cc1nc2cc(C(F)(F)F)cc(C#N)c2c(=O)n1CCOc1ccc(Cl)cc1-c1ccnc2c(C(=O)O)csc12 [compound 61]
< 50 | 24.9 | Cc1nc2ccc(C(F)F)c(C#N)c2c(=O)n1CCOc1ccc(Cl)cc1-c1cccc(C(=O)O)c1 [compound 62]
< 50 | 25.8 | Cc1nc2cc(C#N)c(C(F)F)c(C#N)c2c(=O)n1CCOc1ccc(Cl)cc1-c1cccc(C(=O)O)c1 [compound 63]
50 to 1000 | 62.5 | Cc1nc2cc(C(F)F)c(C(F)F)c(C#N)c2c(=O)n1CCOc1ccc(Cl)cc1-c1cccc(C(=O)O)c1 [compound 64]
< 50 | 24.1 | N#Cc1cc(C(F)(F)F)cc2nc(C(F)F)n(CCOc3ccc(Cl)cc3-c3ccnc4c(C(=O)O)csc34)c(=O)c12 [compound 65]
50 to 1000 | 187 | N#Cc1cc2c(=O)n(CCOc3ccc(Cl)cc3-c3cccc(C(=O)O)c3)cnc2cn1 [compound 66]
50 to 1000 | 432 | CCc1nc2cnccc2c(=O)n1CCOc1ccc(Cl)cc1-c1cccc(C(=O)O)c1 [compound 70]
50 to 1000 | 83.2 | N#Cc1cccc2ncn(CCOc3ccc(Cl)cc3-c3cccc(C(=O)O)c3)c(=O)c12 [compound 73]
50 to 1000 | 423 | N#Cc1ccc2ncn(CCOc3ccc(Cl)cc3-c3cccc(C(=O)O)c3)c(=O)c2c1 [compound 74]
50 to 1000 | 110 | N#Cc1cc2c(=O)n(CCOc3ccc(Cl)cc3-c3csc(C(=O)O)c3)cnc2cn1 [compound 80]
50 to 1000 | 287 | N#Cc1cc2c(=O)n(CCOc3ccc(Cl)cc3-c3ccc(F)c(C(=O)O)c3F)cnc2cn1 [compound 91]
50 to 1000 | 564 | CSc1ncc(-c2cc(Cl)ccc2OCCn2cnc3cnc(C#N)cc3c2=O)nc1C(=O)O [compound 98]
